Experimental data published in US12312328B2, “Pyrazoline dihydroquinolones, pharmaceutical compositions, and uses” (Emory University, priority 2013, dated 2025).
Where two headings read alike, the source gives them in different places.

Tests used:
[1] = target: T1, GluN2D-containing receptors (Rattus norvegicus, UniProt P35439+Q62645); assay: Two-electrode voltage-clamp inhibition of GluN2D-containing NMDA receptors in Xenopus laevis oocytes; assay type: cell-based; conditions: GluN2D-containing receptors
T1 construct: expressed in transfected cells; host or cells: Xenopus laevis oocytes
Experimental: (§1) IC50 values were obtained by fitting the Hill equation to the average composite concentration-effect curves.
(§2) Xenopus laevis oocytes were isolated and maintained as described in Hansen & Traynelis, J Neurosci 2011, 31, 3650-3661. Oocytes were placed in a perfusion chamber with recording solution comprised of (in mM) 90 NaCl, 1 KCl, 0.5 BaCl2, 0.005 EDTA and 10 HEPES, pH adjusted to 7.4 with NaOH at 23° C. The glass electrodes used had tip resistance of 0.5-2.0 MΩ and were filled with 0.3-3.0 M KCl. Compounds were made as 20 mM stock solutions in DMSO and diluted to final concentrations in recording solution (final DMSO was 0.1-0.05% vol/vol). The current recordings were performed using a Warner OC-725B or C amplifier at a holding potential of −40 mV.

[2] = target: T2, GluN2C-containing receptors (Rattus norvegicus, UniProt P35439+Q00961); assay: Two-electrode voltage-clamp inhibition of GluN2C-containing NMDA receptors in Xenopus laevis oocytes; assay type: cell-based
T2 construct: expressed in transfected cells; host or cells: Xenopus laevis oocytes
Experimental: as §1, §2

[3] = system: GluN2C- and GluN2D-containing NMDA receptors; assay: NMDA receptor inhibition and subunit selectivity, GluN2C/GluN2D not told apart; assay type: cell-based
Experimental: as §1, §2

[4] = target: T3, GluN2D-containing receptors (Rattus norvegicus, UniProt Q62645); assay: Two-electrode voltage-clamp inhibition of GluN2D-containing NMDA receptors in Xenopus laevis oocytes; assay type: cell-based
T3 construct: expressed in transfected cells; host or cells: Xenopus laevis oocytes
Experimental: as §1, §2

[5] = target: T4, GluN2C-containing receptors (Rattus norvegicus, UniProt Q00961); assay: Two-electrode voltage-clamp inhibition of GluN2C-containing NMDA receptors in Xenopus laevis oocytes; assay type: cell-based
T4 construct: expressed in transfected cells; host or cells: Xenopus laevis oocytes
Experimental: as §1, §2

[6] = system: MDR1-MDCK cell monolayers; assay: MDR1-MDCK permeability assay; assay type: in vitro ADME; conditions: for BBB penetration classification: from Papp and efflux ratio in MDR1-MDCK
Experimental: The Papp and efflux ratio were calculated as described in the Methods. […] See Wang et al., International Journal of Pharmaceutics, 2005, 288, 349-359.
Cell monolayers were grown to confluence on collagen-coated, microporous, polycarbonate membranes in 12-well Costar Transwell® plates. The permeability assay buffer was Hanks Balanced Salt Solution containing 10 mM HEPES and 15 mM glucose at pH 7.4. The buffer in the receiver chamber also contained 1% bovine serum albumin. The dosing solution concentration in the assay buffer was 5 μM for each compound tested. The cell monolayers were dosed on the apical side (A-to-B) or basolateral side (B-to-A) and incubated at 37° C. with 5% CO2 in a humidified incubator. Samples were taken from the donor and receiver chambers at 120 minutes. Each determination was performed in duplicate. The co-dosed lucifer yellow flux was also measured for each monolayer to ensure no damage was inflicted to the cell monolayers during the flux period. All samples were assayed by LC-MS/MS using electrospray ionization. The apparent permeability (Papp) and percent recovery were calculated as follows. […] Human Liver Microsomal Stability

Plasma stability, mouse = assay type: in vitro ADME; conditions: two-hour time-course
Experimental: (§3) Three analogs, (58) 997-33, (26)997-23 and (64) 997-57 were evaluated for plasma stability as well as aqueous solubility. […] The aqueous solubility of compounds (26)997-23 and (58) 997-33 was evaluated in oocyte recording buffer using nephelometry. […] In order to assess the potential BBB penetration, compounds (26)997-23 and (64)997-57 were selected for evaluation in the MDR1-MDCK permeability assay (FIG. 19). […] The same compounds were also evaluated for metabolic stability using human liver microsomes.

Plasma stability, rat = assay type: in vitro ADME; conditions: two-hour time-course
Experimental: as §3

Plasma stability, human = assay type: in vitro ADME; conditions: two-hour time-course
Experimental: as §3

[7] = GluN2D-containing receptors, read-out: inhibition IC50 for GluN2D

T2 sequence (Q00961 20-1237, other chains not shown): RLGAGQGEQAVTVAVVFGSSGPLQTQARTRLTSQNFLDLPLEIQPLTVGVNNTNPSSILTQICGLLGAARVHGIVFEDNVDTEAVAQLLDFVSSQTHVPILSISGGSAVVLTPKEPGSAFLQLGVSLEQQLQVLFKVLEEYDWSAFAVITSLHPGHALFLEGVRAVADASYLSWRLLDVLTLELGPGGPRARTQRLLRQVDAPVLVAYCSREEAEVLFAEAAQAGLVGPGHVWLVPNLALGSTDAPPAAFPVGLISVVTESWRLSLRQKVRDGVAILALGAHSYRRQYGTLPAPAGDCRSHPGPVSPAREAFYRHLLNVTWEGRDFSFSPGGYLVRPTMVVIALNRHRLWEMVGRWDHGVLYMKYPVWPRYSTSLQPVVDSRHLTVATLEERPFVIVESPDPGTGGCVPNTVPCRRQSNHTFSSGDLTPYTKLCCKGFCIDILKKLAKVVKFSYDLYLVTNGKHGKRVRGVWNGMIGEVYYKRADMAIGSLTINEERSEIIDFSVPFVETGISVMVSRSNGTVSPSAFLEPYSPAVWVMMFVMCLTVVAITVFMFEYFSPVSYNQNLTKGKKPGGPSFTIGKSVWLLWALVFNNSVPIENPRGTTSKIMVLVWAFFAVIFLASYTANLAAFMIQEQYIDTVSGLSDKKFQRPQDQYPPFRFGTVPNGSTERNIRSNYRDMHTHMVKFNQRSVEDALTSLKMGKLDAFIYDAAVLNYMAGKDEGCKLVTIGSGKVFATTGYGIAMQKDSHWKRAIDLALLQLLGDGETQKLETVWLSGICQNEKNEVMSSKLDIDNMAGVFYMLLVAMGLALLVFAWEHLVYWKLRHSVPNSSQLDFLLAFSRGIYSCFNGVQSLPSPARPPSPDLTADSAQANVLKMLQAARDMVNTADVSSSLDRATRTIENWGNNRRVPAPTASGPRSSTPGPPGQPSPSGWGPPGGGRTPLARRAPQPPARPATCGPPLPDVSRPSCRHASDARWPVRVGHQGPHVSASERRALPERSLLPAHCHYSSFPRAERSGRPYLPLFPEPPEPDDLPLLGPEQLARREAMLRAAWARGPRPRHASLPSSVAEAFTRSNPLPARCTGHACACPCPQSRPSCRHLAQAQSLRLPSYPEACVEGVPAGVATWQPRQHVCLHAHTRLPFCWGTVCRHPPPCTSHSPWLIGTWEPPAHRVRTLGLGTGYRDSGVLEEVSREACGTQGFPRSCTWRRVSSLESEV
T3 sequence (Q62645 28-1323, other chains not shown): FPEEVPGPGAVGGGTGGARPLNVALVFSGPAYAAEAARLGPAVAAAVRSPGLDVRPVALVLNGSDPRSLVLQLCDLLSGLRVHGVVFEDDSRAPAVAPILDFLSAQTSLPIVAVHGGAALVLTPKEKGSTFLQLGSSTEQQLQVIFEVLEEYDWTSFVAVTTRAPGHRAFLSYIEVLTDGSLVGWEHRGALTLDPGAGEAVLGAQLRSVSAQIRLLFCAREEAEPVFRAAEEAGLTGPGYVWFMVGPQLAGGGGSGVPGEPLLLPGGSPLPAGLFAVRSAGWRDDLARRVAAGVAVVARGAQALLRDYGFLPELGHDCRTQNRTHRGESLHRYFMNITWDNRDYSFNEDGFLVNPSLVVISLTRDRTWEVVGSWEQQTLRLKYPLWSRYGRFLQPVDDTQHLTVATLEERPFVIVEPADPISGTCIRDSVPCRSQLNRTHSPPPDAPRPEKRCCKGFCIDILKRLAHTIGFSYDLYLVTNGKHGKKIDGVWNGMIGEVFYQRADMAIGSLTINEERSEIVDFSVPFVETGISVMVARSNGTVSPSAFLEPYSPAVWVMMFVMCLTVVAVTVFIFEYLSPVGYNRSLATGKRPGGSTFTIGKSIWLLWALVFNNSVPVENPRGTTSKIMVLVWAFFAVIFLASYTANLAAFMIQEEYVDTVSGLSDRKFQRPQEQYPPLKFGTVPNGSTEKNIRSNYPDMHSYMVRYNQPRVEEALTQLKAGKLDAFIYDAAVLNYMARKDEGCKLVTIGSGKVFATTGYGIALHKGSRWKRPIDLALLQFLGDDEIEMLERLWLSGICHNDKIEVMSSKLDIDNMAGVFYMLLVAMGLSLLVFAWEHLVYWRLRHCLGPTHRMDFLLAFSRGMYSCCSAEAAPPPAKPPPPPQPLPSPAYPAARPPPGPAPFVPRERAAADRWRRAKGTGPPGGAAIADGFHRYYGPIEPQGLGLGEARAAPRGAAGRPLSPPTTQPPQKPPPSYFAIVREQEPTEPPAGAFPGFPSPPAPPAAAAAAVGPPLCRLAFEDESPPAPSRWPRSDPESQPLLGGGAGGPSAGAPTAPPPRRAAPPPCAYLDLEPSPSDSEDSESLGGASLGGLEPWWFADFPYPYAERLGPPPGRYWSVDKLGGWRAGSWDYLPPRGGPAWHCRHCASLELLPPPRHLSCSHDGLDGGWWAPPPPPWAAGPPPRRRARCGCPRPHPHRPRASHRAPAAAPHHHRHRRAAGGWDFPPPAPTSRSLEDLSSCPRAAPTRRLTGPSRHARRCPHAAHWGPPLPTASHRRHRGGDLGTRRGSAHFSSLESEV
T1 sequence (Q62645 28-1323, other chains not shown): as above
T4 sequence (Q00961 20-1237, other chains not shown): as the sequence (Q00961 20-1237, other chains not shown) above

Compound: O=C(CC(F)(F)CO)N1N=C(c2c(-c3ccc(Cl)cc3)c3ccccc3[nH]c2=O)CC1c1ccc(Cl)cc1 (stereo not shown) [4-(4-chlorophenyl)-3-(5-(4-chlorophenyl)-1-(3,3-difluoro-4-hydroxybutanoyl)-4,5-dihydro-1H-pyrazol-3-yl)quinolin-2(1H)-one]
- IC50 [1]: 800 nM
- IC50 [2]: 1600 nM

Compound: O=C(O)CCC(=O)N1N=C(c2c(-c3ccncc3)c3ccccc3[nH]c2=O)CC1c1ccc(Cl)cc1 (stereo not shown) [4-(5-(4-chlorophenyl)-3-(2-oxo-4-(pyridin-4-yl)-1,2-dihydroquinolin-3-yl)-4,5-dihydro-1H-pyrazol-1-yl)-4-oxobutanoic acid]
- IC50 [1]: 8100 nM
- IC50 [2]: 15000 nM

Compound: O=C(CC(F)(F)C(=O)O)N1N=C(c2c(-c3cccc(F)c3)c3ccccc3[nH]c2=O)CC1c1ccc(Cl)cc1 (stereo not shown) [4-(5-(4-chlorophenyl)-3-(4-(3-fluorophenyl)-2-oxo-1,2-dihydroquinolin-3-yl)-4,5-dihydro-1H-pyrazol-1-yl)-2,2-difluoro-4-oxobutanoic acid]
- IC50 [1]: 500 nM
- IC50 [2]: 600 nM

Compound: O=C(O)CC(F)(F)C(=O)N1N=C(c2c(-c3ccc(Cl)cc3)c3ccccc3[nH]c2=O)CC1c1ccc(Cl)cc1 (stereo not shown) [4-(5-(4-chlorophenyl)-3-(4-(4-chlorophenyl)-2-oxo-1,2-dihydroquinolin-3-yl)-4,5-dihydro-1H-pyrazol-1-yl)-3,3-difluoro-4-oxobutanoic acid]
- IC50 [1]: 50 nM
- IC50 [2]: 390 nM

Compound: O=C(CC(F)(F)CO)N1N=C(c2c(-c3ccc(Cl)cc3)c3ccccc3[nH]c2=O)C[C@@H]1c1ccc(Cl)cc1 [(R)-4-(4-chlorophenyl)-3-(5-(4-chlorophenyl)-1-(3,3-difluoro-4-hydroxybutanoyl)-4,5-dihydro-1H-pyrazol-3-yl)quinolin-2(1H)-one]
- IC50 [1]: 3600 nM
- IC50 [2]: 8500 nM

Compound: O=C(CC(F)(F)CO)N1N=C(c2c(-c3ccc(Cl)cc3)c3ccccc3[nH]c2=O)C[C@H]1c1ccc(Cl)cc1 [(S)-4-(4-chlorophenyl)-3-(5-(4-chlorophenyl)-1-(3,3-difluoro-4-hydroxybutanoyl)-4,5-dihydro-1H-pyrazol-3-yl)quinolin-2(1H)-one]
- IC50 [1]: 600 nM
- IC50 [2]: 1400 nM

Compound: O=C(O)CCC(=O)N1N=C(c2c(-c3ccccc3)c3cc(Cl)ccc3[nH]c2=O)CC1c1ccc(C(=O)O)cc1 (stereo not shown) [Compound 997-5, 4-(1-(3-Carboxypropanoyl)-3-(6-chloro-2-oxo-4-phenyl-1,2-dihydroquinolin-3-yl)-4,5-dihydro-1H-pyrazol-5-yl)benzoic acid]
- activity at NMDA receptors, in words [3]: no activity

Compound: COC(=O)c1ccc(C2CC(c3c(-c4ccccc4)c4cc(Cl)ccc4[nH]c3=O)=NN2C(=O)CCC(=O)O)cc1 (stereo not shown) [Compound 997-6, 4-(3-(6-Chloro-2-oxo-4-phenyl-1,2-dihydroquinolin-3-yl)-5-(4-(methoxycarbonyl)phenyl)-4,5-dihydro-1H-pyrazol-1-yl)-4-oxobutanoic acid]
- IC50 ([4]; subunit inferred, GluN2D by context of b229, read-out: IC50 (potency, FIG. 10)): 32000 nM

Compound: O=C(O)CCC(=O)N1N=C(c2c(-c3ccc(Br)cc3)c3ccccc3[nH]c2=O)CC1c1ccc(Br)cc1 (stereo not shown) [Compound 997-7, 4-(5-(4-Bromophenyl)-3-(4-(4-bromophenyl)-2-oxo-1,2-dihydroquinolin-3-yl)-4,5-dihydro-1H-pyrazol-1-yl)-4-oxobutanoic acid]
- selectivity for GluN2D-containing over GluN2A-containing receptors [4]: 33 fold
- selectivity for GluN2D-containing over GluN2B-containing receptors [4]: 67 fold
- IC50 [4, 7]: 390 nM
- IC50 [5]: 710 nM

Compound: O=C(O)CCC(=O)N1N=C(c2c(-c3ccccc3)c3cc(Cl)ccc3[nH]c2=O)CC1c1ccc(C(F)(F)F)cc1 (stereo not shown) [Compound 997-8, 4-(3-(6-Chloro-2-oxo-4-phenyl-1,2-dihydroquinolin-3-yl)-5-(4-(trifluoromethyl)phenyl)-4,5-dihydro-1H-pyrazol-1-yl)-4-oxobutanoic acid]
- IC50 [4, 7]: 4100 nM

Compound: COC(=O)CCC(=O)N1N=C(c2c(-c3ccccc3)c3cc(Cl)ccc3[nH]c2=O)CC1c1ccc(Br)cc1 (stereo not shown) [Compound 997-11, Methyl 4-(5-(4-bromophenyl)-3-(6-chloro-2-oxo-4-phenyl-1,2-dihydroquinolin-3-yl)-4,5-dihydro-1H-pyrazol-1-yl)-4-oxobutanoate]
- activity at NMDA receptors, in words [3]: inactive

Compound: COC(=O)/C=C/C(=O)N1N=C(c2c(-c3ccc(Br)cc3)c3ccccc3[nH]c2=O)CC1c1ccc(Cl)cc1 (stereo not shown) [Compound 997-31, (E)-Methyl 4-(3-(4-(4-bromophenyl)-2-oxo-1,2-dihydroquinolin-3-yl)-5-(4-chlorophenyl)-4,5-dihydro-1H-pyrazol-1-yl)-4-oxobut-2-enoate]
- activity at NMDA receptors, in words [3]: inactive

Compound: O=C(O)CCC(=O)N1N=C(c2c(-c3ccc(F)c(Cl)c3)c3ccccc3[nH]c2=O)CC1c1ccc(Cl)cc1 (stereo not shown) [Compound 997-34, 4-(3-(4-(3-Chloro-4-fluorophenyl)-2-oxo-1,2-dihydroquinolin-3-yl)-5-(4-chlorophenyl)-4,5-dihydro-1H-pyrazol-1-yl)-4-oxobutanoic acid]
- potency at GluN2D-containing receptors, in words [4]: submicromolar

Compound: O=C(O)CCC(=O)N1N=C(c2c(-c3cc(F)cc(F)c3)c3ccccc3[nH]c2=O)CC1c1ccc(Cl)cc1 (stereo not shown) [Compound 997-35, 4-(5-(4-Chlorophenyl)-3-(4-(3,5-difluorophenyl)-2-oxo-1,2-dihydroquinolin-3-yl)-4,5-dihydro-1H-pyrazol-1-yl)-4-oxobutanoic acid]
- potency at GluN2D-containing receptors, in words [4]: submicromolar

Compound: O=C(O)CCC(=O)N1N=C(c2c(-c3cc(Cl)cc(Cl)c3)c3ccccc3[nH]c2=O)CC1c1ccc(Cl)cc1 (stereo not shown) [Compound 997-37]
- potency at GluN2D-containing receptors, in words [4]: submicromolar

Compound: O=C(O)CCC(=O)N1N=C(c2c(-c3ccc(Cl)c(Cl)c3)c3ccccc3[nH]c2=O)CC1c1ccc(Cl)cc1 (stereo not shown) [Compound 997-41, 4-(5-(4-Chlorophenyl)-3-(4-(3,4-dichlorophenyl)-2-oxo-1,2-dihydroquinolin-3-yl)-4,5-dihydro-1H-pyrazol-1-yl)-4-oxobutanoic acid]
- potency at GluN2D-containing receptors, in words [4]: submicromolar

Compound: O=C(O)CCC(=O)N1N=C(c2c(-c3ccc(F)c(F)c3)c3ccccc3[nH]c2=O)CC1c1ccc(Cl)cc1 (stereo not shown) [Compound 997-42, 4-(5-(4-Chlorophenyl)-3-(4-(3,4-difluorophenyl)-2-oxo-1,2-dihydroquinolin-3-yl)-4,5-dihydro-1H-pyrazol-1-yl)-4-oxobutanoic acid]
- potency at GluN2D-containing receptors, in words [4]: submicromolar

Compound: O=C(CCCO)N1N=C(c2c(-c3ccc(Cl)cc3)c3ccccc3[nH]c2=O)CC1c1ccc(Cl)cc1 (stereo not shown) [Compound 997-57, 4-(4-Chlorophenyl)-3-(5-(4-chlorophenyl)-1-(4-hydroxybutanoyl)-4,5-dihydro-1H-pyrazol-3-yl)quinolin-2(1H)-one]
- Papp A-B ([6]; MDR1-MDCK, 5 μM, 120 minutes): 2.46 ×10⁻⁶ cm/s
- BBB penetration classification [6]: low BBB potential
- plasma stability (Plasma stability, mouse): minimal degradation
- plasma stability (Plasma stability, rat): minimal degradation
- selectivity over GluN2A-containing receptors ([3]; activity at GluN2C- and GluN2D-containing receptors versus GluN2A): 90 fold
- plasma stability (Plasma stability, human): minimal degradation

Compound: O=C(O)CCCN1N=C(c2c(-c3ccc(Cl)cc3)c3ccccc3[nH]c2=O)CC1c1ccc(Cl)cc1 (stereo not shown) [Compound 997-63, 4-(5-(4-Chlorophenyl)-3-(4-(4-chlorophenyl)-2-oxo-1,2-dihydroquinolin-3-yl)-4,5-dihydro-1H-pyrazol-1-yl)butanoic acid]
- IC50 [4, 7]: 1700 nM
- IC50 [5]: 3000 nM

Compound: O=C(CCCF)N1N=C(c2c(-c3ccc(Cl)cc3)c3ccccc3[nH]c2=O)CC1c1ccc(Cl)cc1 (stereo not shown) [Compound 997-64, 4-(4-Chlorophenyl)-3-(5-(4-chlorophenyl)-1-(4-fluorobutanoyl)-4,5-dihydro-1H-pyrazol-3-yl)quinolin-2(1H)-one]
- Papp A-B ([6]; MDR1-MDCK, 5 μM, 120 minutes): 3.88 ×10⁻⁶ cm/s
- Papp B-A ([6]; MDR1-MDCK, 5 μM, 120 minutes): 9.52 ×10⁻⁶ cm/s
- BBB penetration classification [6]: highly brain penetrable
